Laboratory results as given in ChEMBL document CHEMBL1201862, “PubChem BioAssay data set” (2004).
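Grown in 96-well plates, cells were treated for 48 hours with each compound at five concentrations. Insufficient inhibition: endpoint recorded as highest concentration tested. Abbreviation: GI50, concentration required for 50% inhibition of growth.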 The source made the active and inactive calls. Rule as the data show it: active = GI50 up to about 1.1 µM and inactive = higher.

Experiments:
Assay in all cases: DTP human tumour cell line panel, 48 h
[1] = test system: A498
[2] = test system: ACHN
[3] = test system: HT-29
[4] = test system: K562
[5] = test system: M14
[6] = test system: NCI-H226
[7] = test system: NCI-H460
[8] = test system: SF-295
[9] = test system: SK-MEL-5
[10] = test system: SK-OV-3
[11] = test system: SN12C
[12] = test system: SR
[13] = test system: SW-620
[14] = test system: UACC-257
[15] = test system: UACC-62
[16] = test system: LOX IMVI
[17] = test system: RPMI-8226

Measured: GI50

CC(=O)CNC(=O)OC(C)(C)C
inactive: [1] > 100 µM | [2] > 100 µM | [3] > 100 µM | [4] > 100 µM | [5] > 100 µM | [6] > 100 µM | [7] > 100 µM | [8] > 100 µM | [9] > 100 µM | [10] > 100 µM | [11] > 100 µM | [12] > 100 µM | [13] > 100 µM | [14] > 100 µM | [15] > 100 µM

O=C1Nc2ccccc2C12CCNC2Cc1ccccc1 (configuration not stated)
inactive: [1] > 100 µM | [2] > 100 µM | [3] > 100 µM | [4] > 100 µM | [16] > 100 µM | [5] > 100 µM | [7] > 100 µM | [17] > 100 µM | [8] > 100 µM | [9] > 100 µM | [10] > 100 µM | [13] > 100 µM | [14] > 100 µM | [15] > 100 µM

C#CN1C(=O)c2c(c(-c3ccccc3)c(-c3ccc(Oc4ccc(-c5c(-c6ccccc6)c6c(c(-c7ccccc7)c5-c5ccccc5)C(=O)N(C#C)C6=O)cc4)cc3)c(-c3ccccc3)c2-c2ccccc2)C1=O
inactive: [2] > 100 µM | [3] > 100 µM | [4] > 100 µM | [16] > 100 µM | [5] 80.7 µM | [7] > 100 µM | [17] > 100 µM | [8] > 100 µM | [9] > 100 µM | [11] 30.1 µM | [13] > 100 µM | [14] > 100 µM | [15] > 100 µM

CN(C)C(=S)Nc1nnc(Nc2ccccc2)s1
inactive: [1] > 100 µM | [2] > 100 µM | [3] > 100 µM | [4] > 100 µM | [16] > 100 µM | [5] > 100 µM | [6] > 100 µM | [7] > 100 µM | [9] 38.7 µM | [10] > 100 µM | [11] > 100 µM | [12] > 100 µM | [13] > 100 µM | [14] 59 µM

Clc1cccc(-c2nnc(-c3nn(-c4ccccc4)c4nc5ccccc5nc34)o2)c1
inactive: [2] > 100 µM | [3] > 100 µM | [4] > 100 µM | [16] > 100 µM | [5] > 100 µM | [6] > 100 µM | [7] > 100 µM | [17] > 100 µM | [8] > 100 µM | [9] 77.4 µM | [10] > 100 µM | [11] > 100 µM | [13] > 100 µM | [14] > 100 µM | [15] > 100 µM

COc1ccc(/C(=N\NC(=N)N)C(c2ccc(OC)cc2)C2OC(=O)c3ccccc32)cc1 (configuration not stated)
inactive: [2] > 100 µM | [3] > 100 µM | [4] > 100 µM | [16] > 100 µM | [5] > 100 µM | [6] > 100 µM | [7] > 100 µM | [17] > 100 µM | [8] > 100 µM | [9] > 100 µM | [10] > 100 µM | [11] > 100 µM | [12] > 100 µM | [13] > 100 µM | [14] > 100 µM | [15] > 100 µM

O=C1c2ccccc2C(=O)N1C/C=N/NS(=O)(=O)c1cccc([N+](=O)[O-])c1
inactive: [1] > 100 µM | [2] > 100 µM | [3] > 100 µM | [4] > 100 µM | [16] > 100 µM | [5] > 100 µM | [7] > 100 µM | [17] > 100 µM | [8] > 100 µM | [9] > 100 µM | [11] > 100 µM | [12] > 100 µM | [13] > 100 µM | [14] > 100 µM | [15] > 100 µM

CC1(C)CC(=O)C2=C(C1)S/C(=C1/SC3=C(S1)C(=O)CC(C)(C)C3)S2
inactive: [1] > 251 µM | [2] > 251 µM | [3] > 251 µM | [4] > 251 µM | [16] > 251 µM | [5] > 251 µM | [7] > 251 µM | [17] > 251 µM | [8] > 251 µM | [10] > 251 µM | [11] > 251 µM | [12] > 251 µM | [13] > 251 µM | [14] > 251 µM | [15] > 251 µM

CCOc1ccc(N2C(=O)/C(=C/c3ccc(N(CCC#N)CCC#N)cc3)N=C2c2cc([N+](=O)[O-])ccc2Cl)cc1
inactive: [1] 48.6 µM | [2] 49.9 µM | [4] 21.3 µM | [16] 23 µM | [5] 24.1 µM | [6] 42.4 µM | [7] 23.5 µM | [17] 15.7 µM | [8] 24.2 µM | [9] 18.6 µM | [10] > 100 µM | [11] 63 µM | [13] 23 µM | [15] 26.7 µM

O=C(/C=C/c1ccc(OCCCCCCCCCCOc2ccc(/C=C/C(=O)c3ccc(Cl)cc3)cc2)cc1)c1ccc(Cl)cc1
inactive: [1] > 100 µM | [2] > 100 µM | [3] > 100 µM | [4] > 100 µM | [16] > 100 µM | [6] > 100 µM | [7] > 100 µM | [17] > 100 µM | [8] > 100 µM | [9] > 100 µM | [10] > 100 µM | [11] > 100 µM | [13] > 100 µM | [14] > 100 µM | [15] > 100 µM

O=C(COc1ccc2c(=O)cc(-c3ccc(Cl)cc3)oc2c1)N1CCN(c2ccccc2)CC1
inactive: [1] 5.69 µM | [2] > 100 µM | [3] > 100 µM | [4] 4.56 µM | [16] > 100 µM | [5] > 100 µM | [6] > 100 µM | [7] > 100 µM | [17] > 100 µM | [8] > 100 µM | [9] > 100 µM | [10] > 100 µM | [11] 65.9 µM | [12] > 100 µM | [13] > 100 µM | [14] > 100 µM | [15] > 100 µM

COC(=O)/C=C/c1cc(OC)c(OC)c(OC)c1
inactive: [2] > 100 µM | [3] > 100 µM | [16] > 100 µM | [5] > 100 µM | [6] 46.1 µM | [7] > 100 µM | [8] > 100 µM | [9] > 100 µM | [10] > 100 µM | [11] > 100 µM | [12] > 100 µM | [13] > 100 µM | [14] > 100 µM | [15] 78.3 µM

O=C(CC(=O)c1cccc2ccccc12)C(=O)NC1C2CC3CC(C2)CC1C3 (configuration not stated)
inactive: [1] > 100 µM | [2] > 100 µM | [3] > 100 µM | [4] 51.4 µM | [16] > 100 µM | [5] > 100 µM | [6] > 100 µM | [7] > 100 µM | [17] > 100 µM | [8] > 100 µM | [9] > 100 µM | [10] > 100 µM | [11] > 100 µM | [13] > 100 µM | [14] > 100 µM | [15] > 100 µM

COC(=O)C1=C(C)N(NC(N)=O)C2(N)N(NC(N)=O)C(C)=C(C(=O)OC)C12C(=O)OC (configuration not stated)
inactive: [1] > 100 µM | [2] > 100 µM | [3] > 100 µM | [4] > 100 µM | [16] > 100 µM | [5] > 100 µM | [6] > 100 µM | [7] > 100 µM | [17] > 100 µM | [8] > 10 µM | [10] > 100 µM | [11] > 100 µM | [13] > 100 µM | [14] > 100 µM | [15] > 100 µM

O=C1c2ccccc2C(=O)c2nc(-c3ccccc3)c(-c3ccccc3)nc21
inactive: [1] 28.2 µM | [2] > 100 µM | [3] 21.7 µM | [4] > 100 µM | [16] 8.04 µM | [5] 5.69 µM | [6] 22.5 µM | [7] 5.83 µM | [17] > 100 µM | [8] 11 µM | [9] 1.49 µM | [10] > 100 µM | [13] 2.7 µM | [14] 1.89 µM | [15] 2.74 µM

COc1ccc(-c2nc3c(nc2-c2ccc(OC)cc2)C(N)=NS(=O)(=O)N3)cc1
inactive: [1] > 100 µM | [2] > 100 µM | [3] > 100 µM | [4] > 100 µM | [16] > 100 µM | [6] > 100 µM | [17] > 100 µM | [8] > 100 µM | [9] > 100 µM | [10] > 100 µM | [11] > 100 µM | [13] > 100 µM | [14] > 100 µM | [15] > 100 µM

O=C(/C=C1/Nc2ccc([N+](=O)[O-])cc2NC1O)c1cccc([N+](=O)[O-])c1 (configuration not stated)
inactive: [1] > 100 µM | [2] 66.5 µM | [3] 56.2 µM | [4] 30.3 µM | [16] 22.2 µM | [5] 21.5 µM | [6] 34.8 µM | [7] 39.2 µM | [8] 13.6 µM | [9] 70.5 µM | [10] 20.3 µM | [11] > 100 µM | [12] > 100 µM | [13] 72.1 µM | [14] 82.4 µM | [15] 81.7 µM

C1=CC(N(c2ccccc2)C2C=CCCC2)CCC1 (configuration not stated)
inactive: [1] > 100 µM | [2] > 100 µM | [3] > 100 µM | [4] > 100 µM | [16] > 100 µM | [5] > 100 µM | [7] > 100 µM | [17] 32.4 µM | [8] 85.7 µM | [9] 84.1 µM | [10] > 100 µM | [11] > 100 µM | [13] > 100 µM | [15] > 100 µM
